Assay type in all cases: physicochemical
Data set [1] can be described thus: Observation of the color of the crystals (Test Example 3). The following applies: crystals as obtained; hydrate. The text has this: Observation of the color of the crystals obtained in Examples 5 and 8 and Comparative Examples 4 and 5 was made.
Data set [2] in a line: Color difference of the crystal before and after storage, spectrophotometric colorimeter, reflection method (Test Examples 4 and 5). Particulars: Table 6, stored 2 weeks, air atmosphere, 40° C., relative humidity 75%, double polyethylene bag. As for the experimental part: As described herein, the color difference of the crystal is measured by reflection method using a spectrocolorimeter.
About 1 g of the test material was added in a storage bag, the storage bag being prepared by inserting one polyethylene bag into another polyethylene bag, each polyethylene bag having a thickness of 0.04 mm, each of the polyethylene bags was sealed, and the test material was stored for 2 weeks in conditions of air atmosphere at a temperature of 40° C. and a relative humidity of 75%. Color change of the crystal before and after the test was evaluated based on color difference.
(§1) Measurement method: Reflection method

Data set [3] in a line: Storage stability test under high temperature and high humidity conditions (Test Example 1). Particulars: about 0.2 g in glass vial, one week, 60° C., relative humidity 75%; compared to Comparative Example 1. As to the method: Storage stability test under high temperature and high humidity conditions
As a test material, the crystals obtained from Example 3 and Comparative Example 1 were selected.
Each of the test material (about 0.2 g) was added to a glass vial and stored for one week under the conditions including temperature of 60° C. and relative humidity of 75%.
State of the crystal of Example 3 before starting the test is illustrated in FIG. 4 and state of the crystal of Example 3 after finishing the test is illustrated in FIG. 5. Further, state of the crystal of Comparative Example 1 before starting the test is illustrated in FIG. 6 and state of the crystal of Comparative Example 1 after finishing the test is illustrated in FIG. 7.

Data set [4] is described as follows: Hue (H) in the Munsell color system of the crystals (Test Example 6). The following applies: reflection method, crystals as obtained, hydrate.
From the text: The Munsell color system is the color system developed by Albert H. Munsell. In the system, color is defined in terms of three attributions, hue, brightness and chroma. Hue (H) represents kinds of colors and, in the Munsell color system, hue is defined by using a total of 10 hues including 5 fundamental hues of red (R), yellow (Y), green (G), blue (B) and purple (P) and 5 intermediate hues of yellow-red (YR), yellow-green (YG), blue-green (BG), blue-purple (BP) and red-purple (RP). In addition, each hue of the 10 hues is further defined by using uniform color scales so that the maximum classification is 10. Hue (H) can be measured by using a measuring device such as a colorimeter or a color-difference meter.
Hue (H) in the Munsell color system of the crystals of Examples 9, 11 to 14 was observed.
Colorimeter: Spectrophotometric colorimeter SE 2000, manufactured by NIPPON DENSHOKU […] CO., LTD.
as §1

Data set [5] is described as follows: Naked-eye observation of coloration after storage at 60° C. and 75% relative humidity. The following applies: stored 2 weeks, relative humidity 75%. As to the method: Compound of Example 9 after it has been stored for 2 weeks under the condition including a temperature of 60° C. and a relative humidity of 75% is illustrated in FIG. 11.

For the molecule `NC(=O)c1nc[nH]c1O` [Comparative Example 4, 5-hydroxy-1H-imidazole-4-carboxamide.3/4 hydrate], the Color of crystals result in data set [1] is given as “Blue”. In the case of `NC(=O)c1nc[nH]c1O` [Comparative Example 5, 5-hydroxy-1H-imidazole-4-carboxamide.3/4 hydrate], in data set [1], the Color of crystals result is “Blue”. On to `NC(=O)c1nc[nH]c1O` [Comparative Example 6, 5-hydroxy-1H-imidazole-4-carboxamide], for which the “Color difference (ΔE)” value in data set [2] is reported as 25.6. Regarding `NC(=O)c1nc[nH]c1O` [Comparative Example 7, 5-hydroxy-1H-imidazole-4-carboxamide.3/4 hydrate, reference compound], the “Color difference (ΔE)” value in data set [2] (hydrate) stood at 8.8. `NC(=O)c1nc[nH]c1O.O` [Example 3, 5-hydroxy-1H-imidazole-4-carboxamide hydrate]: the “Coloration and storage stability of the crystal” value in data set [3] was “clearly less coloration and better storage stability”. `NC(=O)c1nc[nH]c1O` [Example 5, 5-hydroxy-1H-imidazole-4-carboxamide.3/4 hydrate]: in data set [1], the Color of crystals result is listed as “Pale yellow”.

In the case of `NC(=O)c1nc[nH]c1O` [Example 9, 5-hydroxy-1H-imidazole-4-carboxamide.3/4 hydrate], the “Color difference (ΔE)” value in data set [2] (hydrate) is on record as 2.4. The “Hue (H)” value in data set [4] is given as 3.1Y. For the same molecule, in data set [5], the “Coloration observed with a naked eye after storage” value is on record as “no coloration with blue color”. For `NC(=O)c1nc[nH]c1O` [Example 11, 5-hydroxy-1H-imidazole-4-carboxamide-3/4 hydrate], the “Hue (H)” value in data set [4] is given as 3.8Y. On the same count and under the same terms, then `NC(=O)c1nc[nH]c1O` [Example 12, 5-hydroxy-1H-imidazole-4-carboxamide.3/4 hydrate], with 4.4Y. With `NC(=O)c1nc[nH]c1O` [Example 13, 5-hydroxy-1H-imidazole-4-carboxamide.3/4 hydrate], the “Color difference (ΔE)” value in data set [2] (hydrate) turned out to be 5.1. Besides, the “Hue (H)” value in data set [4] amounted to 5.9Y.

For the molecule `NC(=O)c1nc[nH]c1O` [Example 14, 5-hydroxy-1H-imidazole-4-carboxamide.3/4 hydrate], in data set [4], the “Hue (H)” value came out at 5.9Y.

The record behind these values is US9567303B2, “Crystal of 5-hydroxy-1H-imidazole-4-carboxamide hydrate and pharmaceutical composition thereof” (FUJIFILM Corporation, priority 2011, dated 2017).
